Experimental data from patent US10597314B2, “Fatty acid biodispersant and methods of use” (General Electric Company, priority 2013, dated 2020).

Key:
biofilms = assay: Applicant's testing of the amount of cis-2-decenoic acid needed for sufficient activity; format: cell-based; details: relative to the Article's 1.0 nM to 10 mM
From the text: An article titled A Fatty Acid Messenger Is Responsible for Inducing Dispersion in Microbial Biofilms, published in March 2009 in the Journal of Bacteriology (“Article”) is incorporated by reference herein in its entirety. The Article discloses that cis-2-decenoic acid may be used to disperse biofilms.

Microbial Biofilms = details: as stated in the Article; cited from earlier work

Structure (SMILES) | actual amount needed for sufficient activity (biofilms) | amount needed for activity (biofilm dispersion) (Microbial Biofilms)
CCCCCCC/C=C\C(=O)O [cis-2-decenoic acid] | several times more than that | –
CCCCCCC/C=C/C(=O)O [trans-2-decenoic acid] | – | in the mM range
